Assay results reported in patent US10925855B2, “Compositions comprising water dispersible nanoparticles of a retinoid compound” (GALDERMA RESEARCH & DEVELOPMENT, priority 2015, dated 2021).

Legend:
[1] = Stabilizer screening (colloid stability after precipitation); type: physicochemical; details: Compound A 1.0 mg; for Observation: Stable for: at RT
Protocol: If the colloid solution was stable over 2 hours (no aggregation, sedimentation, crystal forming), and no aggregation occurred, the sample was lyophilized. • If precipitation occurred, however the colloid solution was not stable over the whole solid formulation procedure, other stabilizers were tested. Results

[2] = Chemical stability by HPLC; type: physicochemical
Protocol: Chemical stability of nanosized compound A formulae were investigated by HPLC measurements. They were performed in an Agilent 1100 HPLC waters coupled with ZQ2000 MSD, C18, Phenomenex Gemini-NX 3 micron, 100×3 mm column.

SMILES: CC(C)(C)c1cc(-c2cc(-c3ccc(C(=O)O)cc3)ccc2OCCO)ccc1N1CCCC1 [Compound A, 3″-tert-butyl-4′-(2-hydroxyethoxy)-4″-pyrrolidin-1-yl[1,1′;3′,1″]-terphenyl-4-carboxylic acid]
- Observation ([1]; 2 mg PVP10, 1 mL EtOH, 7 mL 0.5 mg/mL BAC solution): Aggregated immediately
- Observation: Aggregated within ([1]; 2 mg PVP10, 1 mL EtOH, 7 mL 0.5 mg/mL DSS solution): Aggregated within 1 hour
- Observation ([1]; 2 mg PVP10, 1 mL EtOH, 7 mL 0.5 mg/mL Mannitol solution): Aggregated immediately
- Observation ([1]; 2 mg PVP10, 1 mL EtOH, 7 mL 0.5 mg/mL NaOAc solution): Aggregated immediately
- Observation: Aggregated within ([1]; 2 mg PVP10, 1 mL EtOH, 7 mL 0.5 mg/mL SDS solution): Aggregated within 1 hour
- Observation ([1]; 2 mg PVP10, 1 mL IPA, 4 mL water): Aggregated
- Observation ([1]; 2 mg PVP10, 1 mL MeOH, 4 mL water): Precipitation did not occur
- Observation: Colloid, Stable for ([1]; 2 mg PVP40, 1 mL EtOH, 4 mL water): Colloid, Stable for 15 min
- Observation ([1]; 2 mg PVP40, 1 mL EtOH, 7 mL 0.05 mg/mL BAC solution): Aggregated immediately
- Observation ([1]; 2 mg PVP40, 1 mL EtOH, 7 mL 0.05 mg/mL DSS solution): Aggregated immediately
- Observation ([1]; 2 mg PVP40, 1 mL EtOH, 7 mL 0.05 mg/mL Mannitol solution): Aggregated immediately
- Observation ([1]; 2 mg PVP40, 1 mL EtOH, 7 mL 0.05 mg/mL NaOAc solution): Aggregated immediately
- Observation ([1]; 2 mg PVP40, 1 mL EtOH, 7 mL 0.05 mg/mL SDS solution): Aggregated immediately
- Observation ([1]; 2 mg PVP40, 1 mL EtOH, 7 mL 0.05 mg/mL citric acid solution): Aggregated immediately
- Observation ([1]; 2 mg PVP40, 1 mL EtOH, 7 mL 0.5 mg/mL BAC solution): Aggregated immediately
- Observation: Aggregated within ([1]; 2 mg PVP40, 1 mL EtOH, 7 mL 0.5 mg/mL DSS solution): Aggregated within 1 hour
- Observation ([1]; 2 mg PVP40, 1 mL EtOH, 7 mL 0.5 mg/mL Mannitol solution): Aggregated immediately
- Observation: Aggregated within ([1]; 2 mg PVP40, 1 mL EtOH, 7 mL 0.5 mg/mL NaOAc solution): Aggregated within 1 hour
- Observation: Aggregated within ([1]; 2 mg PVP40, 1 mL EtOH, 7 mL 0.5 mg/mL SDS solution): Aggregated within 1 hour
- Observation ([1]; 2 mg PVP40, 1 mL EtOH, 7 mL 0.5 mg/mL citric acid solution): Aggregated immediately
- Observation ([1]; 2 mg PVP40, 1 mL IPA, 4 mL water): Aggregated
- Observation ([1]; 2 mg PVP40, 1 mL MeOH, 4 mL water): Precipitation did not occur
- Observation: Colloid, Stable for ([1]; 2 mg PVPK90, 1 mL EtOH, 4 mL water): Colloid, Stable for 5 min
- Observation ([1]; 2 mg PVPK90, 1 mL IPA, 4 mL water): Aggregated
- Observation ([1]; 2 mg PVPK90, 1 mL MeOH, 4 mL water): Precipitation did not occur
- Observation ([1]; 2 mg Pluronic PE6800, 1 mL ACE, 4 mL water): Aggregated immediately
- Observation ([1]; 2 mg Pluronic PE6800, 1 mL EtOH, 4 mL water): Aggregated
- Observation ([1]; 2 mg Pluronic PE6800, 1 mL IPA, 4 mL water): Aggregated
- Observation ([1]; 2 mg Pluronic PE6800, 1 mL MeOH, 4 mL water): Cloudy immediately
- Observation ([1]; 2 mg Pluronic PE6800, 1 mL THF, 5 mL water): Aggregated
- Observation ([1]; 2 mg Pluronic PE10500, 1 mL ACE, 4 mL water): Aggregated immediately
- Observation ([1]; 2 mg Pluronic PE10500, 1 mL EtOH, 4 mL water): Aggregated
- Observation ([1]; 2 mg Pluronic PE10500, 1 mL IPA, 4 mL water): Aggregated
- Observation ([1]; 2 mg Pluronic PE10500, 1 mL MeOH, 4 mL water): Cloudy immediately
- Observation ([1]; 2 mg Pluronic PE10500, 1 mL THF, 4 mL water): Aggregated
- Observation: Aggregated within ([1]; 2 mg Soluplus, 1 mL ACE, 4 mL water): Aggregated within 5 min
- Observation: Slightly opalescent colloid, stable for ([1]; 2 mg Soluplus, 1 mL EtOH, 4 mL water): stable for 5 min
- Observation ([1]; 2 mg Soluplus, 1 mL MeOH, 4 mL water): Precipitation did not occur
- Observation ([1]; 2 mg Soluplus, 1 mL THF, 4 mL water): Aggregated
- Observation ([1]; 2 mg Solutol, 1 mL ACE, 4 mL water): Aggregated immediately
- Observation ([1]; 2 mg Solutol, 1 mL EtOH, 4 mL water): Aggregated
- Observation ([1]; 2 mg Solutol, 1 mL IPA, 4 mL water): Aggregated
- Observation ([1]; 2 mg Solutol, 1 mL MeOH, 4 mL water): Aggregated
- Observation ([1]; 2 mg Solutol, 1 mL THF, 4 mL water): Aggregated
- Observation: Aggregated within ([1]; 2 mg TPGS, 1 mL ACE, 4 mL water): Aggregated within 5 min
- Observation ([1]; 2 mg TPGS, 1 mL EtOH, 4 mL water): Aggregated
- Observation ([1]; 2 mg TPGS, 1 mL IPA, 4 mL water): Aggregated
- Observation: Aggregated after ([1]; 2 mg TPGS, 1 mL MeOH, 4 mL water): Aggregated after 25 min
- Observation ([1]; 2 mg TPGS, 1 mL THF, 4 mL water): Aggregated
- Observation ([1]; 2 mg Tetronic, 1 mL ACE, 4 mL water): Aggregated immediately
- Observation ([1]; 2 mg Tetronic, 1 mL EtOH, 4 mL water): Aggregated
- Observation ([1]; 2 mg Tetronic, 1 mL IPA, 4 mL water): Aggregated
- Observation ([1]; 2 mg Tetronic, 1 mL MeOH, 4 mL water): Cloudy immediately
- Observation ([1]; 2 mg Tetronic, 1 mL THF, 4 mL water): Aggregated
- Observation: Aggregated within ([1]; 3 mg Luviskol VA64, 1 mL EtOH, 0.0001M NaOH solution): Aggregated within 1 day
- Observation: Stable for ([1]; 3 mg Luviskol VA64, 1 mL EtOH, 0.001M NaOH solution): Stable for 3 days at RT
- Observation: Stable for ([1]; 3 mg Luviskol VA64, 1 mL EtOH, 0.01M NaOH solution): Stable for 3 days at RT
- Observation: Stable for ([1]; 3 mg Luviskol VA64, 1 mL EtOH, 0.1M NaOH solution): Stable for 3 days at RT
- Observation ([1]; 3 mg Luviskol VA64, 1 mL EtOH, 7 mL 0.05 mg/mL NaOAc solution): Aggregated immediately
- Observation: Stable for ([1]; 3 mg Luviskol VA64, 1 mL EtOH, 7 mL 0.5 mg/mL NaOAc solution): Stable for 3 days at RT
- Observation ([1]; 3 mg PVP10, 1 mL EtOH, 7 mL 0.05 mg/mL NaOAc solution): Aggregated immediately
- Observation: Aggregated within ([1]; 3 mg PVP10, 1 mL EtOH, 7 mL 0.5 mg/mL NaOAc solution): Aggregated within 1 hour
- Observation ([1]; 3 mg PVP40, 1 mL EtOH, 7 mL 0.05 mg/mL NaOAc solution): Aggregated immediately
- Observation: Stable for ([1]; 3 mg PVP40, 1 mL EtOH, 7 mL 0.5 mg/mL NaOAc solution): Stable for 1 day at RT
- Observation ([1]; 4 mg Luviskol VA64, 1 mL EtOH, 7 mL 0.05 mg/mL NaOAc solution): Aggregated immediately
- Observation: Aggregated within ([1]; 4 mg Luviskol VA64, 1 mL EtOH, 7 mL 0.5 mg/mL NaOAc solution): Aggregated within 1 day
- Observation ([1]; 4 mg PVP10, 1 mL EtOH, 7 mL 0.05 mg/mL NaOAc solution): Aggregated immediately
- Observation: Aggregated within ([1]; 4 mg PVP10, 1 mL EtOH, 7 mL 0.5 mg/mL NaOAc solution): Aggregated within 1 hour
- Observation ([1]; 4 mg PVP40, 1 mL EtOH, 7 mL 0.05 mg/mL NaOAc solution): Aggregated immediately
- Observation: Aggregated within ([1]; 4 mg PVP40, 1 mL EtOH, 7 mL 0.5 mg/mL NaOAc solution): Aggregated within 1 day
- Observation ([1]; no stabilizer (—), 1 mL ACE, 4 mL water): Aggregated
- Observation ([1]; no stabilizer (—), 1 mL EtOH, 4 mL water): Aggregated
- Observation ([1]; no stabilizer (—), 1 mL IPA, 4 mL water): Aggregated
- Observation ([1]; no stabilizer (—), 1 mL MeOH, 4 mL water): Aggregated
- decomposition of the active ingredient in HPLC analysis ([2]; 0.001 M sodium hydroxide solution as antisolvent): decomposition of the active could not be observed
- decomposition of the active ingredient in HPLC analysis ([2]; 0.01 M sodium hydroxide solution as antisolvent): decomposition of the active could not be observed
- decomposition of the active ingredient in HPLC analysis ([2]; 0.1 M sodium hydroxide used as antisolvent (data not shown)): Significant decomposition
